Measurements from US10966996B2, “Glechoma longitube extract, preparation method for same, and use thereof in sugar reduction, weight loss, and lipid reduction” (SHANGHAI INSTITUTE OF MATERIA MEDICA CHINESE ACADEMY OF …, priority 2014, dated 2021).
Blank lines part the entries; values can stand above or below the compound they belong to.

Tests used:
Type in all cases: biochemical
hDGAT1 = target: T1, hDGAT1 (Homo sapiens, UniProt O75907); experiment: inhibitory activity against hDGAT1 (CPM fluorescence)
T1 construct: made in house; host or cells: insect cells
T1 sequence (O75907 1-488): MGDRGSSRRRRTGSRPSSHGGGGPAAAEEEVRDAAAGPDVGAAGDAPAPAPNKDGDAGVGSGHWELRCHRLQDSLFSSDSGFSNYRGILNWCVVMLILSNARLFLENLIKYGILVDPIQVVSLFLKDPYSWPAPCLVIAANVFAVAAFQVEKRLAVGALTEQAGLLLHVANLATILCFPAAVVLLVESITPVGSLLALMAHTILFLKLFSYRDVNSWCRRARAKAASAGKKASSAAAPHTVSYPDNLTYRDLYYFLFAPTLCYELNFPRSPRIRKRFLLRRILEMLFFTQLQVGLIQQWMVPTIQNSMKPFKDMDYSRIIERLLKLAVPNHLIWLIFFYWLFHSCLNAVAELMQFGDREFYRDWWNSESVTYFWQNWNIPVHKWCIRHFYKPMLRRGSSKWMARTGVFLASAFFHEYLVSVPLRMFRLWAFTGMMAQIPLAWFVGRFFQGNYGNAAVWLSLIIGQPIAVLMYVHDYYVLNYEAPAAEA
Procedure: Experimental method: (1) the effect of the extract of Glechoma longituba (Nakai) Kupr., LQC-H-1, on serum triglyceride level was evaluated in acute hypertriglyceridemic mouse model; 6-week old male C57BL/KsJ mice (Shanghai Slac Laboratory Animal Company), 8 for each group, weight of 20±2 g, were fed according to SPF grade operation procedure and fasted overnight for 16 hours prior to experiment. Compounds of different concentrations were intragastric administrated to each administration group of mice, respectively. Equal volume of water was given to control group and blank group of mice. 30 mins later, 2 g/kg olive oil was intragastric administrated to administration group and control group of mice, while equal volume of water was given to blank group of mice. 2 hours later, blood was collected from orbital vein of each group of mice for the separation of serum, and concentration of triglyceride in the serum was measured; (2) inhibitory activity of the individual compounds separated from the extract of Glechoma longituba (Nakai) Kupr., LQC-H-1, against diacylglycerol acyltransferase (DGAT): human derived DGAT1 obtained by expression and purification with insect cells were pre-incubated together with the compounds, substrate diacylglycerol was added to initiate the reaction in the presence of coenzyme A, fluorescence signal generated by the combination of produced sulfydryl and CPM was measured, and the inhibitory activity of the compound against DGAT was calculated according to the following formula: Inhibition rate %=(OD blank−OD compound)/(OD blank−OD negative control)*100%
(§1) OD compound, OD blank, and OD negative control represented the fluorescence values from a compound well, a blank well, and a negative control well free of DGAT1 enzyme, and the concentrations of the compounds when the enzyme activity inhibition rate (%) reached 50% were set as IC50 value; (3) inhibitory activity of the individual compounds separated from the extract of Glechoma longituba (Nakai) Kupr., LQC-H-1, against pancrelipase: substrate p-Nitrophenyl acetate (Sigma, USA) was formulated to 1.35 mM with phosphate buffer (25 mM, pH 6.8); porcine pancrelipase (Sigma) was formulated to 10 mg/ml with phosphate buffer; brominated eneyne compounds were formulated to solutions of different concentrations with phosphate buffer. Then, 50 μl of 1.35 mM p-Nitrophenyl acetate (Sigma, USA) solution and 10 μl of test compounds of different concentrations were sequentially added into a 96-well plate and pre-incubated at 37° C. for 5 mins. Finally, 50 μl of 10 mg/ml pancrelipase (EC 3.1.1.3, Sigma, USA) was added and mixed. The reaction proceeded at 37° C. for further 20 mins Absorbance of each well was measured at 492 nm. The inhibition rates (%) of the test samples against pancrelipase were calculated based on the absorbance at 492 nm. The concentrations of the compounds when then enzyme activity inhibition rate (%) reached 50% was set as IC50 value. The inhibition rate (%) could be calculated according to the following formula: Inhibition rate (%)=[(A−B)−(C−D)]/(A−B)×100

porcine pancrelipase = target: T2, porcine pancrelipase (Sus scrofa, UniProt P00591); experiment: inhibitory activity against pancrelipase (p-Nitrophenyl acetate substrate); conditions: 10 μM
T2 construct: purchased Sigma
T2 sequence (P00591 1-450): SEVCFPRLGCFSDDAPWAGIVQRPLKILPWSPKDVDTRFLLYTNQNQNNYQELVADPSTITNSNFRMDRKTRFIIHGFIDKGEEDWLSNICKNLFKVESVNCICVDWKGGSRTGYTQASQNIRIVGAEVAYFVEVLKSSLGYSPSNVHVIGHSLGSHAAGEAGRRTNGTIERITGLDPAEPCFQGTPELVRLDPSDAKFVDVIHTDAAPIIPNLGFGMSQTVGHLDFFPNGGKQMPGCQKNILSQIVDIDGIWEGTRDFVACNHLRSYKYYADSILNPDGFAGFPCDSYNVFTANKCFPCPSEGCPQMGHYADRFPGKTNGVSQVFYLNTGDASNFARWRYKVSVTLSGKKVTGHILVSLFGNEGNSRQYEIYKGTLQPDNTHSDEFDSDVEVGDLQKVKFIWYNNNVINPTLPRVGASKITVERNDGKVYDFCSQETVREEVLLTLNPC
Source text: as §1
In the above formula, A, B, C, and D represented the absorbance of a blank well after the reaction, the absorbance of a blank well prior to the reaction, the absorbance of a sample well after the reaction, and the absorbance of a sample well prior to the reaction.

glucose oxidase (GOX) = target: T3, glucose oxidase (GOX) (Homo sapiens, UniProt Q9UJM8); experiment: inhibitory activity against glucose oxidase (GOX), enzyme coupling method with glycolic acid substrate; set-up: Vmax: unit not given here
T3 sequence (Q9UJM8 1-370): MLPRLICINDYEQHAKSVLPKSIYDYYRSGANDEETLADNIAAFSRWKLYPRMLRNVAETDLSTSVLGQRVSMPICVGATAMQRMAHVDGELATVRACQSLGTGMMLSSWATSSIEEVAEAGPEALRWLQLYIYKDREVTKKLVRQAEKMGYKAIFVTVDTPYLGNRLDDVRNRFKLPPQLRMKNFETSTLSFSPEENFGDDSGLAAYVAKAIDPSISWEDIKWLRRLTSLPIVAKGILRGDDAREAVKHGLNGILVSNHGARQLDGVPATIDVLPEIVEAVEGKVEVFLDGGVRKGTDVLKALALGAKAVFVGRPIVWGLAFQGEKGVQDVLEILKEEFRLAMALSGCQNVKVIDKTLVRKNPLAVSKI
Procedure: Mechanism of experiment: enzyme coupling method utilizes peroxidase (POD) and substrates thereof to react with generated H2O2 to produce colored products so as to determine the catalytic reaction rate of glucose oxidase. POD catalyzes H2O2 to react with phenol and 4-amino antipyrine to produce brown-red quinone substances.
Experimental method: reagents were added according to the table below; the reaction was immediately initiated upon the final addition of substrate glycolic acid; the kinetic course of the reaction was detected by microplate reader; the enzyme activity was represented by Vmax, maximum reaction velocity.
The measurement results were fitted by Graphpad Prism 5.0 to calculate IC50 values.

- Inhibition rate (%) (10 μM) against hDGAT1 (hDGAT1; 10 μM): 83.36%
- Inhibition rate (%) (50 μM) against hDGAT1 (hDGAT1; 50 μM): 97.51%
SMILES: O=C(Nc1ccccc1)Nc1ccc(-c2ccc(C(=O)[C@@H]3CCC[C@H]3C(=O)O)cc2)cc1 [A 922500, reference compound]

- Inhibition rate % (10 μM) against pancrelipase (porcine pancrelipase): 83.96%
SMILES: CCCCCCCCCCC[C@@H](C[C@@H]1OC(=O)[C@H]1CCCCCC)OC(=O)[C@H](CC(C)C)NC=O [Olistat, reference compound]

- Vmax (glucose oxidase (GOX); 0.1 μM): 34.68 ± 0.06
- inhibition at 0.1 µM (glucose oxidase (GOX); 0.1 μM, read-out: Inhibition rate): 2.82 ± 0.16%
- Vmax (glucose oxidase (GOX); 0.3 μM): 34.66 ± 0.20
- inhibition at 0.3 µM (glucose oxidase (GOX); 0.3 μM, read-out: Inhibition rate): 2.87 ± 0.57%
- Vmax (glucose oxidase (GOX); 1 μM): 33.85 ± 0.55
- inhibition at 1 µM (glucose oxidase (GOX); 1 μM, read-out: Inhibition rate): 5.12 ± 1.53%
- Vmax (glucose oxidase (GOX); 3 μM): 30.21 ± 0.12
- inhibition at 3 µM (glucose oxidase (GOX); 3 μM, read-out: Inhibition rate): 15.3 ± 0.32%
- Vmax (glucose oxidase (GOX); 10 μM): 26.55 ± 0.15
- inhibition at 10 µM (glucose oxidase (GOX); 10 μM, read-out: Inhibition rate): 25.6 ± 0.41%
- Vmax (glucose oxidase (GOX); 30 μM): 16.54 ± 0.12
- inhibition at 30 µM (glucose oxidase (GOX); 30 μM, read-out: Inhibition rate): 53.66 ± 0.34%
- Vmax (glucose oxidase (GOX); 100 μM): −1.40 ± 8.87
- inhibition at 100 µM (glucose oxidase (GOX); 100 μM, read-out: Inhibition rate): 104 ± 24.9%
- IC50 (glucose oxidase (GOX); fitted by Graphpad Prism 5.0): 21 µM
SMILES: O=c1c(O)c(-c2ccc(O)c(O)c2)oc2cc(O)cc(O)c12 [Quercetin, reference compound]
